Where a name gives a salt, the structure may show the parent alone.
The molecules below were run against sodium channel isoforms (Homo sapiens, UniProt P35498). Conditions: area under the sodium current trace, step from −120 mV to 0 mV, HEK cells.
Assay type: cell-based
Description: The sodium channel isoforms of interest are stably expressed in Human Embryonic Kidney Cells and the currents that flow through those channels in response to a depolarizing voltage clamp step from −120 mV to 0 mV are measured in the presence of increasing concentrations of the chemical agents. The area under the sodium current trace which correlates to the magnitude of sodium flux through the cell membrane is used to quantify the effects on gating of the channels. Other parameters that are measured in the assay include the peak current, time constant of open state inactivation and the voltage dependence of steady state inactivation properties. The concentration responses are used to determine potency of each chemical agents effects on modulating the sodium channel isoform gating. Such techniques are known to those skilled in the art, and may be developed, using current technologies, into low or medium throughput assays for evaluating compounds for their ability to modulate sodium channel behaviour.

| SMILES | Empirical Emax |
| --- | --- |
| CC(C)c1ncc(C(=O)Nc2c(-c3ccccc3)ccnc2C2CCCO2)cn1 (racemic) [Example 11, (±)-2-isopropyl-N-(4-phenyl-2-(tetrahydrofuran-2-yl)pyridin-3-yl)pyrimidine-5-carboxamide] | + (+ indicates a value less than 2.0 μM) |
| CC(C)c1ncc(C(=O)Nc2c(-c3ccccc3)ccnc2C23CCOCC2C3)cn1 (racemic) [Example 12, (±)—N-(2-(3-oxabicyclo[4.1.0]heptan-6-yl)-4-phenylpyridin-3-yl)-2-isopropylpyrimidine-5-carboxamide] | + (+ indicates a value less than 2.0 μM) |
| CC(C)c1ncc(C(=O)Nc2c(-c3ccccc3)ccnc2C2CCCN2C(=O)OC(C)(C)C)cn1 (racemic) [Example 13, (±)-tert-butyl 2-(3-(2-isopropylpyrimidine-5-carboxamido)-4-phenylpyridin-2-yl)pyrrolidine-1-carboxylate] | + (+ indicates a value less than 2.0 μM) |
| CC(C)c1ncc(C(=O)Nc2c(-c3ccccc3F)ccnc2C2CCCC(F)(F)CC2)cn1 (racemic) [Example 37, (±)-N-(2-(4,4-difluorocycloheptyl)-4-(2-fluorophenyl)pyridin-3-yl)-2-isopropylpyrimidine-5-carboxamide] | +++ (+++ indicates a value from 5.0 up to 7.5 μM) |
| CC(C)c1ncc(C(=O)Nc2c(-c3ccccc3F)ccnc2C2CC(F)(F)CCN2)cn1 (racemic) [Example 41, (±)—N-[2-(4,4-difluoro-2-piperidyl)-4-(2-fluorophenyl)-3-pyridyl]-2-isopropyl-pyrimidine-5-carboxamide hydrochloric acid salt] | ++ (++ indicates a value from 2.0 up to 5.0 μM) |
| CC(C)c1ncc(C(=O)Nc2c(-c3ccccc3F)ccnc2C2CCCN2C)cn1 (racemic) [Example 42, (±)—N-(4-(2-fluorophenyl)-2-(1-methylpyrrolidin-2-yl)pyridin-3-yl)-2-isopropylpyrimidine-5-carboxamide] | + (+ indicates a value less than 2.0 μM) |
| CC(C)c1ncc(C(=O)Nc2c(-c3ccccc3F)ccnc2C2CC(F)(F)CCN2C)cn1 (racemic) [Example 43] | ++ (++ indicates a value from 2.0 up to 5.0 μM) |
| O=C(Nc1c(-c2ccccc2F)ccnc1C1CCC(F)(F)CC1)c1cnn(C2CCC2)c1 [Example 1, 1-cyclobutyl-N-[2-(4,4-difluorocyclohexyl)-4-(2-fluorophenyl)-3-pyridyl]pyrazole-4-carboxamide] | ++++ (++++ indicates a value greater than 7.5) |
| CN(C)c1ncc(C(=O)Nc2c(-c3ccccc3F)ccnc2C2CCC(F)(F)CC2)cn1 [Example 2, N-[2-(4,4-difluorocyclohexyl)-4-(2-fluorophenyl)-3-pyridyl]-2-(dimethylamino)pyrimidine-5-carboxamide] | ++++ (++++ indicates a value greater than 7.5) |
| CCOc1ncc(C(=O)Nc2c(-c3ccccc3F)ccnc2C2CCC(F)(F)CC2)cn1 [Example 3, N-[2-(4,4-difluorocyclohexyl)-4-(2-fluorophenyl)-3-pyridyl]-2-ethoxy-pyrimidine-5-carboxamide] | ++++ (++++ indicates a value greater than 7.5) |
| CC(C)Oc1ncc(C(=O)Nc2c(-c3ccccc3F)ccnc2C2CCC(F)(F)CC2)cn1 [Example 4, N-[2-(4,4-difluorocyclohexyl)-4-(2-fluorophenyl)-3-pyridyl]-2-isopropoxy-pyrimidine-5-carboxamide] | ++++ (++++ indicates a value greater than 7.5) |
| COC1CCN(C(=O)Nc2c(-c3ccccc3F)ccnc2C2CCC(F)(F)CC2)CC1 [Example 5, N-[2-(4,4-difluorocyclohexyl)-4-(2-fluorophenyl)-3-pyridyl]-4-methoxy-piperidine-1-carboxamide] | +++ (+++ indicates a value from 5.0 up to 7.5 μM) |
| CC(C)c1ncc(C(=O)Nc2c(-c3cc(F)ccc3F)ccnc2C2CCC(F)(F)CC2)cn1 [Example 6, N-[2-(4,4-difluorocyclohexyl)-4-(2,5-difluorophenyl)-3-pyridyl]-2-isopropyl-pyrimidine-5-carboxamide] | +++ (+++ indicates a value from 5.0 up to 7.5 μM) |
| CC(C)Oc1ncc(C(=O)Nc2c(-c3cc(F)ccc3F)ccnc2C2CCC(F)(F)CC2)cn1 [Example 7, N-[2-(4,4-difluorocyclohexyl)-4-(2,5-difluorophenyl)-3-pyridyl]-2-isopropoxy-pyrimidine-5-carboxamide] | ++++ (++++ indicates a value greater than 7.5) |
| COc1ccc(C(=O)Nc2c(-c3cc(F)ccc3F)ccnc2C2CCC(F)(F)CC2)cn1 [Example 8, N-[2-(4,4-difluorocyclohexyl)-4-(2,5-difluorophenyl)-3-pyridyl]-6-methoxy-pyridine-3-carboxamide] | +++ (+++ indicates a value from 5.0 up to 7.5 μM) |
| CC(C)c1ncc(C(=O)Nc2c(-c3cc(F)ccc3F)ccnc2C2CCC(F)(F)CO2)cn1 (centres unmarked) [Example 9, N-[4-(2,5-difluorophenyl)-2-(5,5-difluorotetrahydropyran-2-yl)-3-pyridyl]-2-isopropyl-pyrimidine-5-carboxamide] | +++ (+++ indicates a value from 5.0 up to 7.5 μM) |
| CC(C)c1ncc(C(=O)Nc2c(-c3ccccc3)ccnc2C2CCOCC2)cn1 [Example 10, 2-isopropyl-N-(4-phenyl-2-(tetrahydro-2H-pyran-4-yl)pyridin-3-yl)pyrimidine-5-carboxamide] | ++ (++ indicates a value from 2.0 up to 5.0 μM) |
| CC(C)c1ncc(C(=O)Nc2c(-c3ccccc3F)ccnc2C2CCOCC2)cn1 [Example 14, N-(4-(2-fluorophenyl)-2-(tetrahydro-2H-pyran-4-yl)pyridin-3-yl)-2-isopropylpyrimidine-5-carboxamide] | +++ (+++ indicates a value from 5.0 up to 7.5 μM) |
| CC(C)c1ncc(C(=O)Nc2c(-c3ccccc3F)ccnc2C2CCC(F)(F)CC2)cn1 [Example 15, N-[2-(4,4-difluorocyclohexyl)-4-(2-fluorophenyl)-3-pyridyl]-2-isopropyl-pyrimidine-5-carboxamide] | ++++ (++++ indicates a value greater than 7.5) |
| CC(C)c1ncc(C(=O)Nc2c(-c3ccccc3F)ccnc2C2CCCOC2)cn1 (centres unmarked) [Example 16, N-[4-(2-fluorophenyl)-2-tetrahydropyran-3-yl-3-pyridyl]-2-isopropyl-pyrimidine-5-carboxamide] | ++ (++ indicates a value from 2.0 up to 5.0 μM) |
| CC(C)c1ncc(C(=O)Nc2c(-c3ccccc3F)ccnc2C2CCCCC2)cn1 [Example 17, N-[2-cyclohexyl-4-(2-fluorophenyl)-3-pyridyl]-2-isopropyl-pyrimidine-5-carboxamide] | +++ (+++ indicates a value from 5.0 up to 7.5 μM) |
| CC(C)c1ncc(C(=O)Nc2c(-c3ccccc3F)ccnc2C2CCCCO2)cn1 (centres unmarked) [Example 18, N-[4-(2-fluorophenyl)-2-tetrahydropyran-2-yl-3-pyridyl]-2-isopropyl-pyrimidine-5-carboxamide] | +++ (+++ indicates a value from 5.0 up to 7.5 μM) |
| CC(C)c1ncc(C(=O)Nc2c(-c3ccccc3F)ccnc2C2CC3(C2)CC(F)(F)C3)cn1 [Example 19, N-[2-(2,2-difluorospiro[3.3]heptan-6-yl)-4-(2-fluorophenyl)-3-pyridyl]-2-isopropyl-pyrimidine-5-carboxamide] | ++ (++ indicates a value from 2.0 up to 5.0 μM) |

— patent publication US20250129044A1 (priority 2021, published 2025)
